Like-named read-outs stand apart in the source and are kept apart here.
Columns and labels:
Rat [1] = test: Neural compatibility, rat, pericerebral ED50; assay type: in vivo
Source text: (§1) In Table I, the following compounds are compared with respect to neural and general compatibility: […]

Mouse = test: General compatibility, mouse LD50; assay type: in vivo; conditions: for Mouse LD50: General compatibility
Source text: as §1

[2] = Viscosity at 37° C., 300 mg I/ml; assay type: physicochemical
Solubility in water = assay type: physicochemical; conditions: in 100 ml of water; read-out: Solubility (100 ml of water dissolves)
Rat [3] = test: Neural compatibility, rat, intracisternal ED50; assay type: in vivo
Source text: as §1

Iodine content = assay type: physicochemical
[4] = Number of hydroxy groups per molecule; assay type: physicochemical
[5] = clinical experience; cited from earlier work
Rat [6] = test: Neural compatibility, comparison in words; assay type: in vivo; conditions: data of Table I
Source text: as §1

solubility (Solubility in water)	SMILES	Rat, pericerebral ED50 (Rat [1])	Rat, intracisternal ED50 (Rat [3])	Mouse LD50 (Mouse)	Iodine content (Iodine content)	Number of hydroxy groups/molecule [4]	Viscosity [2]	side effects (in words) [5]	also measured
> 700 mg/mL	CC(=O)N(CCO)c1c(I)c(C(=O)NCC(O)C(O)CO)c(I)c(C(=O)NCC(O)C(O)CO)c1I (centres unmarked) [Example 4, 5-[N-(2-Hydroxyethyl)acetylamino]-2,4,6-triiodo-isophthalic Acid Bis(2,3,4-trihydroxybut-1-yl)-diamide]	–	–	–	–	–	–	–	–
–	C[C@H](O)C(=O)Nc1c(I)c(C(=O)NC(CO)CO)c(I)c(C(=O)NC(CO)CO)c1I [C, Iopamidol]	154 mg I/kg	116 mg I/kg	15 g I/kg	49%	5	4.5 mPa · s	still are not devoid of side effects	–
> 700 mg/mL	CC(=O)N(CCO)c1c(I)c(C(=O)NC(CO)(CO)CO)c(I)c(C(=O)NC(CO)(CO)CO)c1I [Example 3, 5-[N-(2-Hydroxyethyl)acetylamino]-2,4,6-triiodo-isophthalic Acid Bis(1,1,1-trishydroxymethylmethyl)diamide]	–	–	–	–	–	–	–	–
–	CC(=O)N(CC(O)CO)c1c(I)c(C(=O)NCC(O)CO)c(I)c(C(=O)NCC(O)CO)c1I (centres unmarked) [D, Iohexol]	83 mg I/kg	67 mg I/kg	15 g I/kg	46%	6	5.5 mPa · s	still are not devoid of side effects	–
–	CC(=O)Nc1c(I)c(C(=O)N[C@H]2C(O)O[C@H](CO)[C@@H](O)[C@@H]2O)c(I)c(N(C)C(C)=O)c1I (some centres unmarked) [B, Metrizamide]	62 mg I/kg	48 mg I/kg	14 g I/kg	48%	4	6.2 mPa · s	still are not devoid of side effects	–
–	CC(=O)N(CCO)c1c(I)c(C(=O)NC(CO)C(O)CO)c(I)c(C(=O)NC(CO)C(O)CO)c1I (stereo not drawn) [Example 1, 5-[N-(2-Hydroxyethyl)acetylamino]-2,4,6-triiodoisophthalic acid bis(threo-1,3,4-trihydroxybut-2-yl)diamide]	–	130 mg I/kg	–	45%	7	–	–	Rat, pericerebral ED50 (Rat [1]; listed as A1): 171 mg I/kg; Mouse LD50 (Mouse; listed as A1): 17 g I/kg; general compatibility (in words) (Mouse; data of Table I): superior to the comparison compounds; Viscosity ([2]; listed as A1): 5.8 mPa · s; neural compatibility (in words) (Rat [6]): superior to the comparison compounds

SMILES	solubility (Solubility in water)	Rat, pericerebral ED50 (Rat [1])	Rat, intracisternal ED50 (Rat [3])	Mouse LD50 (Mouse)	Iodine content (Iodine content)	Number of hydroxy groups/molecule [4]	Viscosity [2]	side effects (in words) [5]	also measured
CC(=O)N(CCO)c1c(I)c(C(=O)NC(CO)C(O)CO)c(I)c(C(=O)NC(CO)C(O)CO)c1I (stereo not drawn) [Example 2, 5-[N-(2-Hydroxyethyl)acetylamino]-2,4,6-triiodoisophthalic acid bis(erythro-1,3,4-trihydroxybut-2-yl)diamide]	> 700 mg/mL	–	–	–	–	–	–	–	Rat, pericerebral ED50 (Rat [1]; listed as A2): 188 mg I/kg; Mouse LD50 (Mouse; listed as A2): 22 g I/kg; Viscosity ([2]; listed as A2): 6.2 mPa · s

From US4547357A, “N-Hydroxyethylated 2,4,6-triiodoaminoisophthalic acid bistrihydroxybutylamides, their preparation and x-ray contrast media containing them” (priority 1981, dated 1985)
